Experiments:
CaCo-2 cell model = CaCo-2 cell model bioavailability / resorption screening of NASPs with permeation enhancers; type: in vitro ADME, human; settings: for Average Percent Resorption at 8 hours: Table 5; for basolateral concentrations in the presence of a gastrointestinal epithelial barrier permeation enhancer: compared with absence of enhancer, figures
Protocol: (§1) The bioavailability of NASPs in combination with gastrointestinal epithelial barrier permeation enhancers of interest were studied using the CaCo-2 cell model screening. This method utilizes a human colon carcinoma cell line that expresses a wide range of transporter proteins on its cell membranes. Cell layers are grown on a membrane surface that separates two compartments (24-well plate). An example of the experimental setup for these experiments is illustrated in FIG. 1. Selected NASP and gastrointestinal epithelial barrier permeation enhancer samples were dissolved in RPMI cell medium at a concentration of 1 mg/mL and applied onto the cells in the apical compartment. Cells were incubated at 37° C. in 5% CO2. Medium samples were removed from the basolateral and apical compartment at different time points. The condition of the cell layer was monitored by measurement of the transepithelial electrical resistance (TEER). Samples were analyzed by thrombin generation assay (CAT). NASP concentration was calculated based on activity from CAT assay. Experimental details of thrombin generation assays and other blood coagulation assays are described in U.S. patent application Ser. No. 11/140,504, filed on May 27, 2005, now U.S. Pat. No. 7,767,654, and U.S. patent application Ser. No. 13/006,396, filed on Jan. 13, 2011, the disclosures of which is herein incorporated by reference.
All NASP and gastrointestinal epithelial barrier permeation enhancer samples were diluted in such a way that the sample concentration was in the range of increasing procoagulant activity. Based on the initial load concentration values, apical and basolateral concentrations were determined at 2 hour increments (e.g., 2 hours, 4 hours, 6 hours, 8 hours, including 24 hours). Based on the determined basolateral concentrations, the percent resorption was determined for each combination of compounds (i.e., NASP and gastrointestinal epithelial barrier permeation enhancers).
FIGS. 4-8 illustrate resorption of some natural NASPs of interest in Caco-2 cell models as determined by TGA and liquid chromatography/mass spectrometry in combination with different gastrointestinal epithelial barrier permeation enhancers. FIGS. 9 and 10 illustrate resorption of some synthetic NASPs of interest in Caco-2 cell models as determined by TGA and liquid chromatography/mass spectrometry in combination with different gastrointestinal epithelial barrier permeation enhancers.

CaCo-2 cell layer = experiment: Condition of the cell layer by transepithelial electrical resistance (TEER) in CaCo-2 screening; type: cell-based, human
Protocol: as §1, with “reference. […]” for “reference.”

[1] = Bromelain/Chitosan 0.5 mg/mL: 3%
[2] = in the presence of bromelain at 8 hours
[3] = in the presence of deoxycholate at 8 hours

Row | Substance | Average Percent Resorption at 8 hours (CaCo-2 cell model; Bromelain 0.5 mg/mL) [%] | Average Percent Resorption at 8 hours (CaCo-2 cell model; [1]) [%] | Average Percent Resorption at 8 hours (CaCo-2 cell model; Chitosan 3%) [%] | Average Percent Resorption at 8 hours (CaCo-2 cell model; Deoxycholate 0.08%) [%] | Average Percent Resorption at 8 hours (CaCo-2 cell model; No enhancer) [%] | Average Percent Resorption at 8 hours (CaCo-2 cell model; Deoxycholate 0.06%) [%] | Average Percent Resorption at 8 hours (CaCo-2 cell model; Sodium Caprate 12 mM) [%] | basolateral concentrations in the presence of a gastrointestinal epithelial barrier permeation enhancer (CaCo-2 cell model) | resorption in Caco-2 cell models (CaCo-2 cell model; [2]) | resorption in Caco-2 cell models (CaCo-2 cell model; in the presence of chitosan) | resorption in Caco-2 cell models (CaCo-2 cell model; [3]) | resorption in Caco-2 cell models (CaCo-2 cell model; in the presence of sodium caprate) | transepithelial electrical resistance after removal of the permeation enhancer and the NASP (CaCo-2 cell layer; after removal of enhancer and maltopentaose) | resorption in Caco-2 cell models (CaCo-2 cell model; in the presence of sodium caprate at 8 hours) | transepithelial electrical resistance after treatment with the permeation enhancer alone (CaCo-2 cell layer; enhancer alone, no NASP)
1 | Sulfated 6-Carboxyicodextrin [Sulfated 6-Carboxyicodextrin 14 kD] | 17.7 | 44.5 | 5.4 | 27.2 | 3.8 | – | – | – | – | – | – | – | – | – | –
2 | Sulfated Maltopentose | 48.6 | 158.8 | 35.7 | 113.2 | 0 | 67.4 | 13.1 | increased | increased substantially | strong increased resorption | increased substantially | strong increased resorption | increased | – | –
3 | bromelain | – | – | – | – | – | – | – | – | – | – | – | – | – | – | recovery of the transepithelial electrical resistance

Continued, in another order:

Row | Average Percent Resorption at 8 hours (CaCo-2 cell model; Bromelain 0.5 mg/mL) [%] | Average Percent Resorption at 8 hours (CaCo-2 cell model; [1]) [%] | Average Percent Resorption at 8 hours (CaCo-2 cell model; Chitosan 3%) [%] | Average Percent Resorption at 8 hours (CaCo-2 cell model; Deoxycholate 0.08%) [%] | Average Percent Resorption at 8 hours (CaCo-2 cell model; No enhancer) [%] | Average Percent Resorption at 8 hours (CaCo-2 cell model; Deoxycholate 0.06%) [%] | Average Percent Resorption at 8 hours (CaCo-2 cell model; Sodium Caprate 12 mM) [%] | basolateral concentrations in the presence of a gastrointestinal epithelial barrier permeation enhancer (CaCo-2 cell model) | resorption in Caco-2 cell models (CaCo-2 cell model; [2]) | resorption in Caco-2 cell models (CaCo-2 cell model; in the presence of chitosan) | resorption in Caco-2 cell models (CaCo-2 cell model; [3]) | resorption in Caco-2 cell models (CaCo-2 cell model; in the presence of sodium caprate) | transepithelial electrical resistance after removal of the permeation enhancer and the NASP (CaCo-2 cell layer; after removal of enhancer and maltopentaose) | resorption in Caco-2 cell models (CaCo-2 cell model; in the presence of sodium caprate at 8 hours) | Substance | transepithelial electrical resistance after treatment with the permeation enhancer alone (CaCo-2 cell layer; enhancer alone, no NASP)
4 | 10.0 | 36.8 | 2.6 | 14.7 | 1.6 | 4.9 | – | – | – | – | – | – | – | – | Sulfated 6-Carboxyicodextrin [Sulfated 6-Carboxyicodextrin 24 kD] | –
5 | 24.7 | 59.8 | 15.6 | 36.1 | 0 | 20.6 | 19.3 | increased | increased substantially | – | increased substantially | – | – | increased substantially | Sulfated β-cyclodextrin | –
